{"source": "ChEMBL document CHEMBL5137082", "about": "“Discovery of a Novel Vascular Disrupting Agent Inhibiting Tubulin Polymerization and HDACs with Potent Antitumor Effects” (J Med Chem, 2022)", "key": {"HepG2 [1]": {"test_system": "HepG2", "assay": "Induction of apoptosis in human HepG2 cells assessed as early apoptotic cells at 30 nM incubated for 48 hrs by Annexin-V/PI-staining based flow cytometry (reference value: 4.61 +/- 0.46%)", "format": "functional"}, "HepG2 [2]": {"test_system": "HepG2", "assay": "Induction of apoptosis in human HepG2 cells assessed as early apoptotic cells at 7.5 nM incubated for 48 hrs by Annexin-V/PI-staining based flow cytometry (reference value: 4.61 +/- 0.46%)", "format": "functional"}, "HUVEC [3]": {"test_system": "HUVEC", "assay": "Antimigratory activity against HUVEC cells assessed as suppression of migration measured after 24 hrs by Wound healing assay", "format": "functional, cell-based", "conditions": "Homo sapiens, dose 7.5-30 nM, DDE = dose-dependent effect"}, "HepG2 [4]": {"test_system": "HepG2", "assay": "Induction of cell cycle arrest in human HepG2 cells assessed as accumulation S phase at 30 nM incubated for 48 hrs by propidium iodide staining based flow cytometry analysis (reference value: 17.14 +/- 0.34%)", "format": "functional"}, "HepG2 [5]": {"test_system": "HepG2", "assay": "Induction of G2/M phase cell cycle arrest in human HepG2 cells assessed as decrease in cyclin B1 protein expression at 7.5 to 30 nM measured after 24 hrs by western blot analysis", "format": "functional, cell-based", "conditions": "dose 7.5-30 nM"}, "HepG2 [6]": {"test_system": "HepG2", "assay": "Induction of G2/M phase cell cycle arrest in human HepG2 cells assessed as decrease in Cdc2 protein expression at 7.5 to 30 nM measured after 24 hrs by western blot analysis", "format": "functional, cell-based", "conditions": "dose 7.5-30 nM"}, "[7]": {"assay": "Cardiotoxicity in ICR mouse allografted with mouse H22 cells assessed as effect on T wave at 20 mg/kg, iv administered qd measured after 21 days by ECG analysis", "format": "toxicity, organism-based", "conditions": "in vivo, 504 h, time 21 day"}, "[8]": {"assay": "Toxicity in ICR mouse allografted with mouse H22 cells assessed as change in heart rate at 20 mg/kg, iv administered qd measured after 21 days", "format": "organism-based", "conditions": "in vivo, 504 h, time 21 day"}, "HepG2 [9]": {"test_system": "HepG2", "assay": "Induction of morphological changes in human HepG2 cells assessed as nuclear fragmentation at 7.5 to 30 nM after 48 hrs by Hoechst 33258 staining based fluorescence microscopic analysis", "format": "functional, cell-based", "conditions": "dose 7.5-30 nM"}, "HepG2 [10]": {"test_system": "HepG2", "assay": "Induction of apoptosis in human HepG2 cells assessed as necrotic cells at 30 nM incubated for 48 hrs by Annexin-V/PI-staining based flow cytometry (reference value: 1.43 +/- 0.26%)", "format": "functional"}, "Histone deacetylase 3": {"molecular_target": "Histone deacetylase 3 (Homo sapiens, UniProt O15379)", "sequence (O15379 whole entry)": "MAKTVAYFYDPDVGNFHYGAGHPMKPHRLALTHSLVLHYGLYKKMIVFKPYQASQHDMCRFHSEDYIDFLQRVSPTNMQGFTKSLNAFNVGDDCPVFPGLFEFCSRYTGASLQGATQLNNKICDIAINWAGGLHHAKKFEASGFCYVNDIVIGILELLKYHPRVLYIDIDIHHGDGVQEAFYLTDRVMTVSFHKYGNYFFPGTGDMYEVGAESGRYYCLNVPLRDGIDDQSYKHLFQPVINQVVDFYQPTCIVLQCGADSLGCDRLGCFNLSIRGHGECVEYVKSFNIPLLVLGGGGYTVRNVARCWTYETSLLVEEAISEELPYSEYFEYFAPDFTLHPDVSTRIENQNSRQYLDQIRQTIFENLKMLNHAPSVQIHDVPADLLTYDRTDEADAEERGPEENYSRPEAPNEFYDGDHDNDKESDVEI", "assay": "Inhibition of HDAC3 in human HepG2 cells assessed as increase in level of acetyl histone H3substrate incubated for 24 hrs by chemiluminescence based Western blotting analysis", "format": "cell-based", "conditions": "dose 0.03-0.3 µM"}, "[11]": {"assay": "Cardiotoxicity in ICR mouse allografted with mouse H22 cells assessed as effect on P wave at 20 mg/kg, iv administered qd measured after 21 days by ECG analysis", "format": "toxicity, organism-based", "conditions": "in vivo, 504 h, time 21 day"}, "HepG2 [12]": {"test_system": "HepG2", "assay": "Induction of apoptosis in human HepG2 cells assessed as upregulation of Bad protein expression measured after 24 hrs by Western blot analysis", "format": "functional, cell-based", "conditions": "dose 7.5-30 nM, DDE = dose-dependent effect"}, "[13]": {"assay": "Antiproliferative activity against HUVEC cells assessed as inhibition of cell growth measured after 24 hrs by MTT assay", "format": "toxicity, cell-based", "conditions": "human"}, "HepG2 [14]": {"test_system": "HepG2", "assay": "Induction of cell cycle arrest in human HepG2 cells assessed as accumulation G1 phase at 15 nM incubated for 48 hrs by propidium iodide staining based flow cytometry analysis (reference value: 59.32 +/- 0.77%)", "format": "functional"}, "Histone deacetylase 8": {"molecular_target": "T1, Histone deacetylase 8 (Homo sapiens, UniProt Q9BY41)", "T1 sequence (Q9BY41 whole entry)": "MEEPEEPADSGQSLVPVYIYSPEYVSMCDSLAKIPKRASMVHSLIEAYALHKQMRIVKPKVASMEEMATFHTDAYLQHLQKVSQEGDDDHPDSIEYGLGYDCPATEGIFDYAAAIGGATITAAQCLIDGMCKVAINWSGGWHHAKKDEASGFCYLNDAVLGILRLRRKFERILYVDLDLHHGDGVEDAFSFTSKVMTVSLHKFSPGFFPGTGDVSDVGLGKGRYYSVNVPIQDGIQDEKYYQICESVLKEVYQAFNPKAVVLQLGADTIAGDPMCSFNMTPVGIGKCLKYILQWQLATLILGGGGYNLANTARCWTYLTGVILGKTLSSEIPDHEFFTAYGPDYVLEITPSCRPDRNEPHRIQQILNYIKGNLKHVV", "assay": "Inhibition of HDAC8 in human HeLa cells using BOC-K(Ac)-AMC as substrate measured after 30 mins by fluorescence based microtiter plate reader assay", "format": "cell-based"}, "[15]": {"assay": "Metabolic stability in mouse plasma assessed as compound remaining at 40 uM measured after 2 hrs by LC-MS/MS analysis (reference value: 100%)", "format": "ADME, cell-free"}, "HepG2 [16]": {"test_system": "HepG2", "assay": "Induction of cell cycle arrest in human HepG2 cells assessed as accumulation G1 phase at 7.5 nM incubated for 48 hrs by propidium iodide staining based flow cytometry analysis (reference value: 59.32 +/- 0.77%)", "format": "functional"}, "Histone deacetylase 1": {"molecular_target": "Histone deacetylase 1 (Homo sapiens, UniProt Q13547)", "sequence (Q13547 whole entry)": "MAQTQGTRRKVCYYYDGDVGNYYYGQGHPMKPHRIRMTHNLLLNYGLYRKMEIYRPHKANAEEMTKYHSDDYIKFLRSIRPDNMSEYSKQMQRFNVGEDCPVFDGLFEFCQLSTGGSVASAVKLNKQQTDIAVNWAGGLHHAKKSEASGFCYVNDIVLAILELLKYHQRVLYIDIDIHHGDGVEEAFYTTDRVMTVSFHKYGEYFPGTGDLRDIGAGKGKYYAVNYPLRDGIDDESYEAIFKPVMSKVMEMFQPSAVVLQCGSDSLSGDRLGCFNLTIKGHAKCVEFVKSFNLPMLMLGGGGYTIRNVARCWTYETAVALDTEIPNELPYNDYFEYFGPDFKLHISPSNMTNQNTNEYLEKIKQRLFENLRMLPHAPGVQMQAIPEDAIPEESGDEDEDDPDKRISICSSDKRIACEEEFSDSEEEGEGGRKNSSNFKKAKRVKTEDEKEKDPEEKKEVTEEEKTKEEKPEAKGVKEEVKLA", "assay": "Inhibition of HDAC1 in human HeLa cells using BOC-K(Ac)-AMC as substrate measured after 30 mins by fluorescence based microtiter plate reader assay", "format": "cell-based"}, "K562": {"test_system": "K562", "assay": "cells", "format": "functional, cell-based", "conditions": "Homo sapiens, K562, 72 h", "description": "Antiproliferative activity against human K562 cells assessed as inhibition of cell growth measured after 72 hrs by MTT assay"}, "Tubulin (Homo sapiens)": {"molecular_target": "Tubulin (Homo sapiens) (UniProt P68371+Q9H4B7+P0DPH7+P68366+Q13509+Q71U36+P04350+Q3ZCM7+P07437+P68363+Q9BQE3+Q6PEY2+Q13885+Q9BVA1+Q9BUF5)", "assay": "Disruption of microtubule network in human HepG2 cells at 7.5 to 30 nM measured after 2 hrs by DAPI staining based immunofluorescence microscopic assay", "format": "cell-based", "conditions": "dose 7.5-30 nM"}, "HepG2 [17]": {"test_system": "HepG2", "assay": "Induction of cell cycle arrest in human HepG2 cells assessed as accumulation S phase at 15 nM incubated for 48 hrs by propidium iodide staining based flow cytometry analysis (reference value: 17.14 +/- 0.34%)", "format": "functional"}, "[18]": {"assay": "Metabolic stability in mouse plasma assessed as half life at 40 uM measured upto 5 hrs by LC-MS/MS analysis", "format": "ADME, cell-free"}, "HUVEC [19]": {"test_system": "HUVEC", "assay": "Antivascular activity against HUVEC cells assessed as inhibition of capillary-like tubule formation at 30 nM measured after 6 hrs by inverted microscopy", "format": "functional, cell-based", "conditions": "Homo sapiens"}, "HepG2 [20]": {"test_system": "HepG2", "assay": "Induction of apoptosis in human HepG2 cells assessed as viable cells at 7.5 nM incubated for 48 hrs by Annexin-V/PI-staining based flow cytometry (reference value: 91.44 +/- 0.74%)", "format": "functional", "conditions": "read-out: Activity"}, "[21]": {"assay": "Cardiotoxicity in ICR mouse allografted with mouse H22 cells assessed as effect on QRS complex at 20 mg/kg, iv administered qd measured after 21 days by ECG analysis", "format": "toxicity, organism-based", "conditions": "in vivo, 504 h, time 21 day"}}, "note": "Active and inactive are the calls of the source. No cut-off for these calls is given here."}
{"compound": "COc1ccc(CNC(=O)c2cc(F)ccc2N2CCOCC2)cc1/C=C/C(=O)NO", "values": [{"measurement": "Activity", "setting": "HepG2 [1]", "result": 34.86, "unit": "%"}, {"measurement": "Activity", "setting": "HepG2 [2]", "result": 20.15, "unit": "%"}, {"measurement": "Activity", "setting": "HUVEC [3]", "result": "Dde"}, {"measurement": "Activity", "setting": "HepG2 [4]", "result": 23.58, "unit": "%"}, {"measurement": "Activity", "setting": "HepG2 [5]", "result": "Active"}, {"measurement": "Activity", "setting": "HepG2 [6]", "result": "Active"}, {"measurement": "Activity", "setting": "[7]", "result": "Non-Toxic"}, {"measurement": "Activity", "setting": "[8]", "result": "Non-Toxic"}, {"measurement": "Activity", "setting": "HepG2 [9]", "result": "Active"}, {"measurement": "Activity", "setting": "HepG2 [10]", "result": 2.85, "unit": "%"}, {"measurement": "inhibition", "setting": "Histone deacetylase 3", "result": "Active"}, {"measurement": "Activity", "setting": "[11]", "result": "Non-Toxic"}, {"measurement": "Activity", "setting": "HepG2 [12]", "result": "Dde"}, {"measurement": "IC50 at 24 h", "setting": "[13]", "result": 271, "unit": "nM"}, {"measurement": "Activity", "setting": "HepG2 [14]", "result": 49.96, "unit": "%"}, {"measurement": "IC50", "setting": "Histone deacetylase 8", "result": 2120, "unit": "nM"}, {"measurement": "Stability", "setting": "[15]", "result": 30.7, "unit": "%"}, {"measurement": "Activity", "setting": "HepG2 [16]", "result": 54.77, "unit": "%"}, {"measurement": "IC50", "setting": "Histone deacetylase 1", "result": 115, "unit": "nM"}, {"measurement": "IC50", "setting": "K562", "result": 18, "unit": "nM"}, {"measurement": "Activity", "setting": "Tubulin (Homo sapiens)", "result": "Active"}, {"measurement": "Activity", "setting": "HepG2 [17]", "result": 23.06, "unit": "%"}, {"measurement": "half-life at 40 µM", "setting": "[18]", "result": 2.1, "unit": "h"}, {"measurement": "Activity", "setting": "HUVEC [19]", "result": "Active"}, {"measurement": "viability at 0.0075 µM", "setting": "HepG2 [20]", "result": 71.6, "unit": "%"}, {"measurement": "Activity", "setting": "[21]", "result": "Non-Toxic"}]}
